The values below come from patent US20080318892A1, “METHODS AND FORMULATIONS FOR PROTECTING CELLS, AND FOR TREATING DISEASES AND CONDITIONS BY OPTIMIZING THE INTRACELLULAR CONCENTRATION OF NAD” (priority 2007, published 2008).

Positions count from the first letter of the chain named. Names and notes keep the numbering of the source.

For series [1], the system named is HDAC. Briefly: Histone deacetylase (HDAC) assay in SMC lysates with [3H]-acetylated histone H4 peptide. The format is biochemical, human. As to the method: HITC6 SMC's were stably transduced with pQXCIP-PURO or pQXCIP-PBEF-PURO and HDAC activity determined in cell lysates (25 μg of protein), using [^3H]histone H4 peptide as the substrate. The reactions were quenched by acid hydrolysis and catalytically released [^3H]-acetate was extracted in ethyl acetate.
Histone Deacetylase (HDAC) Assays were employed. Histone H4 peptide (Upstate) was labeled with [^3H]-acetyl Coenzyme A (ICN) using PCAF histone acetylase. Cell lysates were harvested using Passive Lysis Buffer (Promega) and 25 μg of protein was incubated at 37° C. for 6 hours with 50,000 cpm of [^3H]-acetyl histone and 1 mM PMSF in HDAC Assay Buffer (Upstate). Released [^3H]-acetate was extracted with ethyl acetate (31) and counted on a Beckman LS3801 scintillation counter.

The subject of series [2] is HITC6 SMC's. Briefly: Survival, morphology and h-caldesmon expression of PBEF-knockdown SMCs. The format is cell-based, human. Particulars: for SMC morphology / SMC survival: retroviral hairpin siRNA. The method, then:
(§1) Western Blot Analyses were employed to assay marker expression. Expression of PBEF and SMC differentiation markers was assessed by Western blot analysis with chemiluminescence detection, as described (29). Equal amounts of protein were resolved on 12% (for PBEF and α-tubulin), 9% (for smoothelin A and smoothelin B) and 6% (for caldesmon and vinculin-metavinculin) SDS-polyacrylamide gels and transferred PVDF membranes (Immobilon, Millipore). PBEF was detected using a polyclonal rabbit antibody against human PBEF (1857, 1:5000, kindly provided by Amgen). Monoclonal antibodies were used to detect heavy (h)-caldesmon (clone hHCD, 1:1000, Sigma), smoothelin isoforms A and B (clone MAB3242, 1:500, Chemicon), vinculin-metavinculin (clone VIN-11-5, 1:2000, Sigma), and α-tubulin (clone B-5-1-2; 1:16000, Sigma).
(§2) Knockdown of PBEF by RNA Interference was evaluated with a viral vector. PBEF knockdown was accomplished by infecting human SMC's with retrovirus containing sequences encoding hairpin siRNA fragments. Complementary oligodeoxynucleotides were synthesized, annealed, and inserted between the BamH1 and EcoR1 sites of the retroviral expression vector pSIREN-RetroQ. Three different targeting sequences were used, each consisting of 19 nucleotides starting at nucleotides 147, 384, and […] of the PBEF coding sequence (siRNA147 5′-GGAAGGTGAAATATGAGGA-3′; siRNA384 5′-ATGTTCTCTTCACGGTGGA-3′; siRNA1278 5′-AGGGCCGATTATCTTTACA-3′). Each sequence was separated by a 9-nucleotide noncomplementary spacer from the reverse complement of the same 19-nucleotide sequence. Blast search confirmed that only the PBEF gene was targeted. Control inserts contained the gene-specific 19-nucleotide sequence and hairpin loop sequence but not the antisense component. Infection of SMCs was performed as described above and cells were selected using 3 μg/ml puromycin for 48 hours.
Microscopy and Image Analysis were used to measure cell robustness and function. Cell images were collected using a Zeiss Axiovert S100 microscope (Carl Zeiss Microimaging Inc.) equipped with Hoffman Modulation Contrast Plan objectives and TCT condenser (Modulation Optics Inc.), cooled QICAM 12-bit Mono Fast 1394 camera (QImaging Inc.) and Northern Eclipse image analysis software (Empix Imaging Inc.). Histology images were acquired with an Olympus BX50 microscope with a BX-FLA illuminator, UPlanF1 objective lenses (Olympus Optical Co. Ltd.), cooled Retiga EXi Mono Fast 1394 camera (QImaging Inc.) and Northern Eclipse image analysis software. Linear image processing was done using Photoshop CS (Adobe Systems Inc.).

Series [3] has as its system PBEF. In words: Knockdown of PBEF by RNA interference: PBEF mRNA (real-time RT-PCR) and protein (Western blot). The format is cell-based, human. Particulars: HITC6 SMCs, retroviral hairpin siRNA. The method, then:
as §1, §2
Real-time RT-PCR was used to analyze nucleic acid evidence. RNA was harvested using RNeasy mini-column and reagents (Qiagen) and subjected to DNaseI treatment. Probe (5′-CAGTTGCTGATCCCA-3′) and flanking primers (5′-primer 5′-[…]-3′; 3′-primer 5′-[…]-3′) for Taqman real-time RT-PCR for PBEF were designed using Primer Express software (Applied Biosystems). Reactions were performed using an ABI-Prism 7900 Sequence Detection System (Applied Biosystems). Optimum signal was obtained with concentrations of 200 nM, 300 nM and 50 nM for the probe, 5′ primer, and 3′ primer, respectively. Standard curves were generated using RNA derived from human aortic SMCs, enabling correlation of the determined threshold cycle to transcript abundance. GAPDH transcript abundance was used as an endogenous RNA control (Assays on Demand Hs9999905, Applied Biosystems) to which PBEF transcript abundance was normalized.
A general note: In qPCR the cycle at which signal appears reflects the starting amount.

For series [4], the system named is HITC6 SMCs. In words: Senescence-associated beta-galactosidase activity / senescence-free survival. To be noted: 37th subculture. Type of series: cell-based, human. The method, then: Senescence-associated β-Galatosidase Activity Assay. SMCs on glass coverslips at approximately 70% confluence were fixed in 2% formaldehyde/0.2% glutaraldehyde in PBS for 3 minutes and incubated with X-gal-containing reaction mixture, as previously described (Dimri, 1995). Washed cells were stained with Hoechst 33258 (2.5 μg/ml) and the proportion of senescence-associated β-galactosidase (SA β-Gal)-positive cells quantified from 10 microscope fields of view (Olympus BX51, ×20 objective, approximately 1200 cells). Senescence-free survival was determined using Kaplan-Meier analysis of survival vs. replicative age.
Senescence-associated Beta-galactosidase Activity. Senescence-associated beta-galactosidase (SA-β-gal) activity was determined as previously described (Dimri et al, 1995). Briefly, SMCs were fixed in PBS containing 2% formaldehyde/0.2% glutaraldehyde for 3 min at room temperature. Fixed cells were then incubated for 4-6 h at 37° C. with SA-β-gal stain solution containing 150 mM NaCl, 2 mM MgCl, 40 mM citrate, 5 mM potassium ferrocyanide, 5 mM potassium ferricyanide, and 1 mg/ml of 5-bromo-4-chloro-3-indolyl-β-D-galactopyranoside (X-gal) (Invitrogen, Carlsbad, Calif., USA), at pH 6.0. SMCs were counterstained with 2.5 μg/ml Hoechst 33258 to detect cell nuclei. The proportion of SA-β-gal activity positive cells was quantified using light and fluorescence microscopy (Olympus BX51, Center Valley, Pa., USA).

Series [5] deals with HITC6 SMCs. Briefly: Replicative lifespan (cumulative population doublings) of HITC6 SMCs. The format is cell-based, human. The method, then: To quantify replication, cells were plated at 4500 cells/cm^2 and growth medium with 10% FBS was changed every two days until cells reached 90-95% confluence. Harvested cells were counted from triplicate plates and the number of population doublings was calculated based on: [log10(number of cells harvested)−log10(number of cells seeded)]/[…] (Fukuhara, 2005). Population growth curves were compared using both nonlinear regression and two-way analysis of variance.
Cell Culture. Experiments were performed using primary human SMCs and the HITC6 clonal SMC line, both derived from segments of human internal thoracic artery (Li et al., 1999; Li et al., 2001). SMCs were maintained at 37° C. with 5% CO2 and cultured in Medium 199 (Invitrogen, Carlsbad, Calif., USA) supplemented with 25 mM HEPES, 10% FBS, 1% penicillin/streptomycin, and 1% L-glutamine. Phoenix cells (distributed by ATCC, Manassas, Va., USA) were maintained at 37° C. with 5% CO2 and cultured in Dulbecco's modified Eagle's medium (Invitrogen, Carlsbad, Calif., USA). To quantify replication, cells were seeded at a density of 4500 cells/cm2 and population doublings were calculated using the following formula: […].

Series [6] deals with primary human vascular SMCs. In words: Replicative lifespan (cumulative population doublings) of primary SMCs. Type of series: cell-based. To be noted: SIRT1-overexpressing primary adult SMCs; p<0.01.

Regarding `CC(NC(=O)c1ccccc1/N=C/c1c(O)ccc2ccccc12)c1ccccc1` (centres unmarked) [Sirtinol, sirtinol], in series [1] (50 μM sirtinol), the “HDAC activity in PBEF-overexpressing SMC's” value is reported as “significantly inhibited” and the “HDAC activity in control SMC's” value is “more modest inhibition”.
For the molecule “siRNA147: retrovirally expressed hairpin siRNA to PBEF, 19 nt from nucleotide 147: 5'-GGAAGGTGAAATATGAGGA-3' (hairpin with spacer and reverse complement)”, in series [2], the SMC morphology result is listed as “short, truncated morphology” and the SMC survival entry was “survived poorly”. Also, in series [3], the “PBEF mRNA (real-time RT-PCR) vs non-silencing RNA control” value is given as “significant decrease” and the PBEF protein entry was “significant suppression”.
As for “siRNA384: retrovirally expressed hairpin siRNA to PBEF, 19 nt from nucleotide 384: 5'-ATGTTCTCTTCACGGTGGA-3' (hairpin with spacer and reverse complement)”, the SMC morphology result in series [2] is reported as “maintained an elongated morphology”. For the same molecule, in series [3], the “PBEF mRNA (real-time RT-PCR) vs non-silencing RNA control” value was “did not manifest a reduction” and the PBEF protein result is “did not manifest a reduction”.
As to “siRNA1248: retrovirally expressed hairpin siRNA to PBEF, 19 nt from nucleotide 1248: 5'-AGGGCCGATTATCTTTACA-3' (hairpin with spacer and reverse complement)”, in series [2], the “h-caldesmon expression (Western blot)” value is “reduced expression”; the SMC morphology result is listed as “short, truncated morphology”; the SMC survival result is “survived poorly”. For the same molecule, in series [3], the “PBEF mRNA (real-time RT-PCR) vs non-silencing RNA control” value is “significant decrease” and the PBEF protein result is “significant suppression”.
As to trichostatin A, the “HDAC activity in both control and PBEF-overexpressing SMC's” value in series [1] (40 nM trichostatin A) was “substantially inhibited”.

B1: SIRT1 H363Y: dominant-negative form of SIRT1 (H363Y), retrovirally transduced (protein, UniProt Q96EB6 2-747, looked up, variant H363Y)
NAD-dependent protein …: ADEAALALQPGGSPSAAGADREAASSPAGEPLRKRPRRDGPGLERSPGEPGGAAPEREVPAAARGCPGAAAAALWREAEAEAAAAGGEQEAQATAAAGEGDNGPGLQGPSREPPLADNLYDEDDDDEGEEEEEAAAAAIGYRDNLLFGDEIITNGFHSCESDEEDRASHASSSDWTPRPRIGPYTFVQQHLMIGTDPRTILKDLLPETIPPPELDDMTLWQIVINILSEPPKRKKRKDINTIEDAVKLLQECKKIIVLTGAGVSVSCGIPDFRSRDGIYARLAVDFPDLPDPQAMFDIEYFRKDPRPFFKFAKEIYPGQFQPSLCHKFIALSDKEGKLLRNYTQNIDTLEQVAGIQRIIQCYGSFATASCLICKYKVDCEAVRGDIFNQVVPRCPRCPADEPLAIMKPEIVFFGENLPEQFHRAMKYDKDEVDLLIVIGSSLKVRPVALIPSSIPHEVPQILINREPLPHLHFDVELLGDCDVIINELCHRLGGEYAKLCCNPVKLSEITEKPPRTQKELAYLSELPPTPLHVSEDSSSPERTSPPDSSVIVTLLDQAAKSNDDLDVSESKGCMEEKPQEVQTSRNVESIAEQMENPDLKNVGSSTGEKNERTSVAGTVRKCWPNRVAKEQISRRLDGNQYLFLPPNRYIFHGAEVYSDSEDDVLSSSSCGSNSDSGTCQSPSLEEPMEDESEIEEFYNGLEDEPDVPERAGGAGFGTDGDDQEAINEAISVKQEVTDMNYPSNKS
With B1, the figures for the “relative increase in senescence” value in series [4] (dominant-negative SIRT1 co-expressed in PBEF-overexpressing SMCs) and in series [4] (vector-infected SMCs expressing SIRT1 H363Y) were 55±12% and 15±10%, respectively. Further, the “additional population doublings conferred by Nampt” value in series [5] (SIRT1 H363Y allele co-expressed with Nampt, p=0.003) worked out at 0.3±0.3 population doublings.

B2: SIRT1: NAD+-dependent deacetylase; tested by retroviral overexpression of human SIRT1 cDNA in SMCs (protein, UniProt Q96EB6 2-747, looked up)
NAD-dependent protein …: B1 NAD-dependent protein … with Y362H
As to B2, the “increase in cumulative population doublings vs vector infected SMCs” value in series [6] was determined as 1.30±0.93 fold. Further, the “increase in number of population doublings” value in series [5] (SIRT1-SMCs, clonal longer-lived human SMC line, p<0.05) is 1.17±0.03 fold.
